Patent publication US20220107328A1, “METHODS OF TREATING LIVER DISEASES” (Camp4 Therapeutics Corporation, priority 2018, published 2022)
Each block holds one compound with its values, some of them ahead of it.

Legend:
PNPLA3 mRNA [1] = assay: qRT-PCR of PNPLA3 mRNA in compound-treated mouse hepatocytes; format: cell-based
Protocol: Analysis of the fold changes in expression as measured by qRT-PCR were performed using the technique below. The control was DMSO, and the treatment was the selected compound (CPD). The internal control was GAPDH or B-Actin (or otherwise indicated), and the gene of interest is the target. First, the averages of the 4 conditions were calculated for normalization: DMSO:GAPDH, DMSO:Target, CPD: GAPDH, and CPD:Target. Next, the ΔCT of both control and treatment were calculated to normalize to internal control (GAPDH) using (DMSO:Target)−(DMSO:GAPDH)=ΔCT control and (CPD:Target)−(CPD: GAPDH)=ΔCT experimental. Then, the ΔΔCT was calculated by ΔCT experimental−ΔCT control. The Expression Fold Change (or Relative Quantification, abbreviated as RQ) was calculated by 2−(ΔΔCT) (2-fold expression change was shown by RNA-Seq results provided herein).
Compounds were tested at concentrations ranging from 0.01 μM to 50 μM. […] PNPLA3 levels were normalized to the level of a house keeping gene ACTB.

PNPLA3 mRNA [2] = assay: qRT-PCR of PNPLA3 mRNA in human primary hepatic stellate cells; format: cell-based; conditions: for Relative PNPLA3 level vs Untreated (±Standard Deviation): normalized to GAPDH; for PNPLA3 expression in stellate cells from different donors (in words): donors I/I and M/M, eight concentrations
COL1A1 mRNA = assay: qRT-PCR of COL1A1 mRNA in human primary hepatic stellate cells; format: cell-based; conditions: 3 μM, relative to GAPDH
Protocol: Cells were plated at a density of 17000 cells/well in a 96-well plate and allowed to adhere overnight. The following day cell culture media was replenished with the indicated concentration(s) of compound for 18 hours. […] Medium was removed after 18 hours and cells were processed for further analysis, e.g. qRT-PCR.
Analysis of the fold changes in expression as measured by qRT-PCR were performed using the technique below. The control was DMSO, and the treatment was the selected compound (CPD). The internal control was GAPDH or B-Actin (or otherwise indicated), and the gene of interest is the target. First, the averages of the 4 conditions were calculated for normalization: DMSO:GAPDH, DMSO:Target, CPD: GAPDH, and CPD:Target. Next, the ΔCT of both control and treatment were calculated to normalize to internal control (GAPDH) using (DMSO:Target)−(DMSO:GAPDH)=ΔCT control and (CPD:Target)−(CPD: GAPDH)=ΔCT experimental. Then, the ΔΔCT was calculated by ΔCT experimental−ΔCT control.
Candidate compounds were tested in stellate cells for their ability to modulate PNPLA3 and COL1A1. Stellate cells were treated with serial dilutions of the compounds, ranging from 0.1 μM to 100 μM. Changes in PNPLA3 (or COL1A1) mRNA levels in stellate cells were analyzed with qRT-PCR.

[3] = test system: triglyceride content in HepG2 cells; assay: AdipoRed staining and triglyceride quantification of lipid droplet fraction in HepG2 cells; format: cell-based; conditions: 72 hours; for TG (nmol/ug protein) (±Standard Deviation): lipid droplet fraction
Protocol: HepG2 cells were treated with OSI-027 as described in Example 1. DMSO was used as a control. After treatment, the cells were stained with the AdipoRedTM Assay Reagent (cat #PT-7009) according to the manufacturer's instructions. Parallel treatment samples were processed for triglyceride quantification. For triglyceride quantification, HepG2 cells were treated with OSI-027 for 72 hours. Cells were collected and the lipid droplet (LD) fraction of the cell lysate enriched using the lipid droplet isolation kit (Cell Biolabs Inc., #[…]) per the manufacturer's instructions. The triglyceride content of the LD-enriched fraction measured using a Triglyceride Quantification Kit (Biovision Inc., #K622) per manufacturer's protocol, with a fluorimetric read-out.

[4] = test system: PNPLA3 mRNA in mouse liver; assay: High sucrose diet mouse pharmacology study, liver PNPLA3 mRNA; format: in vivo; conditions: for PNPLA3 liver mRNA after exclusion of outliers and re-analysis (in words) / PNPLA3 liver mRNA, dose titration (in words): 6 hours post dose; for PNPLA3 liver mRNA, dose titration (in words): decreasing doses QD oral gavage four days
Protocol: LY2157299 was also tested in vivo. C57BL/6J mice were divided into […]. Each group had 6 male mice. […] Groups 1-10 received food throughout the dosing period. […] Eyes were also collected for groups 11-14.
(§1) Mouse liver tissues were pulverized in liquid nitrogen and aliquoted into small microtubes. TRIzol (Invitrogen Cat #15596026) was added to the tubes to facilitate cell lysis from tissue samples. The TRIzol solution containing the disrupted tissue was then centrifuged and the supernatant phase was collected. Total RNA was extracted from the supernatant using Qiagen RNA Extraction Kit (Qiagen Cat#74182) and the PNPLA3 mRNA levels were analyzed using qRT-PCR.
(§2) C57BL/6J mice were divided into 14 groups. Each group had 6 male mice. All mice were given an HS diet at night on a synchronized schedule. […] The animals received no food at night on Day 10.
as §1, with “Cat #74182)” for “Cat#74182)”, “target” for “PNPLA3”, “qRT-PCR. mRNA levels for PNPLA3, PNPLA5, COL1A1, and PCSK9 were assessed.” for “qRT-PCR.”

[5] = test system: COL1A1 mRNA in mouse liver; assay: High sucrose diet mouse dose response study, liver COL1A1 mRNA; format: in vivo; conditions: HS diet mice, 6 hours post dose
Protocol: as §2
as §1, with “Cat #74182)” for “Cat#74182)”, “target” for “PNPLA3”, “qRT-PCR. mRNA levels for PNPLA3, PNPLA5, COL1A1, and PCSK9 were assessed.” for “qRT-PCR.”

[6] = test system: PCSK9 mRNA in mouse liver; assay: High sucrose diet mouse dose response study, liver PCSK9 mRNA; format: in vivo; conditions: HS diet mice, 6 hours post dose
Protocol: as §2
as §1, with “Cat #74182)” for “Cat#74182)”, “target” for “PNPLA3”, “qRT-PCR. mRNA levels for PNPLA3, PNPLA5, COL1A1, and PCSK9 were assessed.” for “qRT-PCR.”

PCSK9 mRNA = assay: qRT-PCR of PCSK9 mRNA in primary hepatocytes; format: cell-based, human; conditions: donor 4178, 3 μM, relative to GUSB
[7] = test system: phosphorylated S6 (pS6/S6); assay: Western blot of phosphorylated S6 in human hepatocytes; format: cell-based; conditions: 3 μM; for phosphorylated S6 (pS6/S6) over time (in words): 35 min to 20 hrs, relative to DMSO control; for pS6/S6: human hepatocytes, mTORC1 pathway, time point not stated
Protocol: (§3) Levels of phosphorylated S6, AKT, and NDRG1 proteins were determined as compared to total S6, AKT, and NDRG1 protein. PNPLA3 mRNA expression was quantified and normalized to housekeeping gene GUSB.

[8] = test system: phosphorylated AKT (pAKT/AKT); assay: Western blot of phosphorylated AKT in human hepatocytes; format: cell-based; conditions: 3 μM; for phosphorylated AKT (pAKT/AKT) over time (in words): 35 min to 20 hrs, relative to DMSO control; for pAKT (473)/AKT: human hepatocytes, mTORC2 pathway, time point not stated
Protocol: as §3

[9] = Serum insulin quantification in mice (ELISA); format: in vivo, mouse
Protocol: Mouse 7-8 week old C57BL/6J mice were divided into 9 groups. Each group had 8 male mice. All mice were given a high sucrose diet for 10 days (Diet no. 901683; 74% kCal from sucrose. […] Food was removed at the start of the light cycle, about 7 am, except on the last day, when food was left in the cage until termination. On day 7-10, mice were administered daily (QD) via oral gavage, candidate compounds at a volume of 10 mL/kg with the compound in vehicle solution (0.5% methylcellulose/0.2% tween20). Vehicle alone was administered to control group 1. OSI-027 was administered at 25 mg/kg, 10 mg/kg, 5 mg/kg, and 2 mg/kg to groups 2-5. […] The treatment was administered in the evening on Days 7 to 10 and in the morning on Day 11, starting at 5 am. On Day 11, mice were terminated 4 hours post last dose at 9 am, for a total of 5 doses of each candidate compound. Mice were weighed 2×/week until Day 11. Liver and blood samples were collected after mice were terminated. Liver samples were process for mRNA extraction as previously described. Blood samples were processed for serum collection. […] Serum insulin levels in mouse samples were quantified using an ELISA kit purchased from Crystal Chem (Catalog #90080), per the manufacturer's instructions.

[10] = test system: mTOR signaling of phospho-4E-BP1; conditions: cited from earlier work
[11] = HS diet mice, QD oral gavage four days, OSI-027 50 mg/kg, PF-04691502 10 mg/kg

Structure (SMILES): COc1cccc2cc(-c3nc([C@H]4CC[C@H](C(=O)O)CC4)n4ncnc(N)c34)[nH]c12 [OSI-027]
Relative PNPLA3 mRNA levels (PNPLA3 mRNA [1]; mouse hepatocytes, 1 μM, normalized to ACTB): 0.24 ± 0.12 | Relative PNPLA3 mRNA expression (PNPLA3 mRNA [2]; 0.04 uM, Table 36 (cell type not given)): 1.071 | Relative PNPLA3 mRNA expression (PNPLA3 mRNA [2]; 0.122 uM, Table 36): 0.795 | Relative PNPLA3 mRNA expression (PNPLA3 mRNA [2]; 0.37 uM, Table 36): 0.427 | Primary Stellate cells PNPLA3 (fold change in mRNA expression) (PNPLA3 mRNA [2]; 3 μM, relative to GAPDH): 0.57 | Relative PNPLA3 mRNA expression (PNPLA3 mRNA [2]; 3.3 uM, Table 36): 0.262 | Relative PNPLA3 level vs Untreated (±Standard Deviation) (PNPLA3 mRNA [2]; (I/I) homozygous human stellate cells, 0.00045 uM): 1.25 ± 0.10 | Relative PNPLA3 level vs Untreated (±Standard Deviation) (PNPLA3 mRNA [2]; (I/I) homozygous human stellate cells, 0.012 uM): 0.89 ± 0.05 | Relative PNPLA3 level vs Untreated (±Standard Deviation) (PNPLA3 mRNA [2]; (I/I) homozygous human stellate cells, 0.037 uM): 0.97 ± 0.12 | Relative PNPLA3 level vs Untreated (±Standard Deviation) (PNPLA3 mRNA [2]; (I/I) homozygous human stellate cells, 0.33 uM): 0.57 ± 0.05 | Relative PNPLA3 level vs Untreated (±Standard Deviation) (PNPLA3 mRNA [2]; (I/I) homozygous human stellate cells, 1 uM): 0.62 ± 0.09 | Relative PNPLA3 level vs Untreated (±Standard Deviation) (PNPLA3 mRNA [2]; (M/M) homozygous human stellate cells, 0.00045 uM): 0.96 ± 0.12 | Relative PNPLA3 level vs Untreated (±Standard Deviation) (PNPLA3 mRNA [2]; (M/M) homozygous human stellate cells, 0.012 uM): 0.92 ± 0.12 | Relative PNPLA3 level vs Untreated (±Standard Deviation) (PNPLA3 mRNA [2]; (M/M) homozygous human stellate cells, 0.037 uM): 1.08 ± 0.04 | Relative PNPLA3 level vs Untreated (±Standard Deviation) (PNPLA3 mRNA [2]; (M/M) homozygous human stellate cells, 0.33 uM): 0.63 ± 0.03 | Relative PNPLA3 level vs Untreated (±Standard Deviation) (PNPLA3 mRNA [2]; (M/M) homozygous human stellate cells, 1 uM): 0.60 ± 0.05 | EC50 (PNPLA3 mRNA [2]; Homo sapiens, PNPLA3 dose-response, Stellate cell (M/M)): 62 nM | PNPLA3 expression in stellate cells from different donors (in words) (PNPLA3 mRNA [2]): effectively decreased PNPLA3 expression in a dose-dependent manner | Primary Stellate cells COL1A1 (fold change in mRNA expression) (COL1A1 mRNA): 0.51 | TG (nmol/ug protein) (±Standard Deviation) ([3]; 0.33 μM): 0.24 ± 0.02828 nmol/ug protein | TG (nmol/ug protein) (±Standard Deviation) ([3]; 1 μM): 0.235 ± 0.03535 nmol/ug protein | triglyceride content (in words) [3]: reduced triglyceride content in HepG2 cells | PNPLA3 liver mRNA after exclusion of outliers and re-analysis (in words) [4]: more significant dose dependent decrease in PNPLA3 mRNA | PNPLA3 liver mRNA, 6 hours post-dose (in words) [4, 11]: reduced PNPLA3 mRNA | PNPLA3 liver mRNA, 12 hours post-dose (in words) ([4]; HS diet mice, QD oral gavage four days, OSI-027 50 mg/kg, PF-04691502 10 mg/kg, LY2157299 75 mg/kg): reduced PNPLA3 mRNA | PNPLA3 liver mRNA, dose titration (in words) ([4]; HS diet mice): dose dependent decrease | COL1A1 liver mRNA, dose titration (in words) [5]: did not result in a significant decrease in COL1A1 mRNA | PCSK9 liver mRNA, dose titration (in words) [6]: dose dependent decrease | Primary Hepatocytes 4178 PCSK9 (fold change in mRNA expression) (PCSK9 mRNA): 0.69 | phosphorylated S6 (pS6/S6) over time (in words) [7]: decreased at 1 hour | pS6/S6 [7]: 0.06 | phosphorylated AKT (pAKT/AKT) over time (in words) [8]: decreased at 4.5 hours | pAKT (473)/AKT [8]: 0.06 | serum insulin (in words) ([9]; 10 mg/kg, 5 mg/kg, and 2 mg/kg): no significant changes in serum glucose or serum insulin levels | serum insulin (in words) ([9]; 25 mg/kg): significant increased | IC50 [10]: 1000 nM

serum insulin (in words) ([9]; 1 mg/kg): moderate increases in serum insulin
Structure (SMILES): COc1ccc(-c2cc3c(C)nc(N)nc3n([C@H]3CC[C@H](OCCO)CC3)c2=O)cn1 [PF-04691502]
mrna remaining at 1 µM (PNPLA3 mRNA [1]; Hepatocyte, Mouse hepatocytes, 1 uM, read-out: PNPLA3 mRNA remaining after treatment compared to untreated cells): 43% | mrna remaining at 10 µM (PNPLA3 mRNA [1]; Hepatocyte, Mouse hepatocytes, 10 uM, read-out: PNPLA3 mRNA remaining after treatment compared to untreated cells): 20% | mrna remaining at 1 µM (PNPLA3 mRNA [2]; Human Stellate, 1 uM, read-out: PNPLA3 mRNA remaining after treatment compared to untreated cells): 20% | mrna remaining at 10 µM (PNPLA3 mRNA [2]; Human Stellate, 10 uM, read-out: PNPLA3 mRNA remaining after treatment compared to untreated cells): 35% | PNPLA3 expression in stellate cells from different donors (in words) (PNPLA3 mRNA [2]): effectively decreased PNPLA3 expression in a dose-dependent manner | PNPLA3 liver mRNA after exclusion of outliers and re-analysis (in words) [4]: greater decrease in PNPLA3 mRNA | PNPLA3 liver mRNA, 6 hours post-dose (in words) [4, 11]: reduced PNPLA3 mRNA at 6 hours post-dose | PNPLA3 liver mRNA, dose titration (in words) ([4]; HS diet mice): dose dependent decrease in PNPLA3 and PNPLA5 mRNA | COL1A1 liver mRNA, dose titration (in words) [5]: decrease in COL1A1, ANGLPTL3 and PCSK9 mRNA | PCSK9 liver mRNA, dose titration (in words) [6]: decrease in COL1A1, ANGLPTL3 and PCSK9 mRNA | phosphorylated S6 (pS6/S6) over time (in words) [7]: decreased at 1 hour | pS6/S6 [7]: 0.06 | phosphorylated AKT (pAKT/AKT) over time (in words) [8]: decreased at 20 hours | pAKT (473)/AKT [8]: 0.06 | serum insulin (in words) ([9]; 10 mg/kg, 5 mg/kg, and 2 mg/kg): significant serum glucose and serum insulin increases
